Here are results for one compound from article PMC8801435, “Legume Alternative Oxidase Isoforms Show Differential Sensitivity to Pyruvate Activation” (Frontiers in Plant Science, 2022).

Experiment in all cases: O2 consumption (Clark electrode), activation of AOX in inverted membrane vesicles
Holding throughout (format): biochemical

The target of one assay is T1, GmAOX1 (Glycine max, UniProt Q07185).
T1 construct: gene AOX1; mature form, predicted mitochondrial target peptide removed, new start Met (forward primer encodes M-ESTLALS), pET22b(+), E. coli BHH8 inverted membrane vesicles; apparent 28 kDa; reduced (DTT)
T1 sequence (Q07185 42-321): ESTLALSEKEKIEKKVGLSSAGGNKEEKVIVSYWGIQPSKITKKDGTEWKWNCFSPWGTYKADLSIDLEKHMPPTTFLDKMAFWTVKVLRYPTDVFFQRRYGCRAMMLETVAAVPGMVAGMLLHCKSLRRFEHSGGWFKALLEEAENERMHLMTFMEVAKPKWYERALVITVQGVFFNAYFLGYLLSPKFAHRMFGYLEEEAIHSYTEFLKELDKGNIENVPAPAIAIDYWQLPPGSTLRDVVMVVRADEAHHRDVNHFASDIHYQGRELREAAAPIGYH
The following applies: activator; 2.5 mM NADH, 5 mM DTT, 1 mM KCN, pH 7.0; discussion text b26 prints 6 μM; read-out: Present study / K1/2 PYR. An excerpt:
O2 consumption (Clark electrode), activation of AOX in inverted membrane vesicles on GmAOX1

The target of the next assay is T2, GmAOX2A (Glycine max, UniProt Q41266).
T2 construct: gene AOX2; mature form, predicted mitochondrial target peptide removed, new start Met (forward primer encodes M-MVSPA), pET22b(+), E. coli BHH8 inverted membrane vesicles; apparent 29 kDa; reduced (DTT)
T2 sequence (Q41266 58-333): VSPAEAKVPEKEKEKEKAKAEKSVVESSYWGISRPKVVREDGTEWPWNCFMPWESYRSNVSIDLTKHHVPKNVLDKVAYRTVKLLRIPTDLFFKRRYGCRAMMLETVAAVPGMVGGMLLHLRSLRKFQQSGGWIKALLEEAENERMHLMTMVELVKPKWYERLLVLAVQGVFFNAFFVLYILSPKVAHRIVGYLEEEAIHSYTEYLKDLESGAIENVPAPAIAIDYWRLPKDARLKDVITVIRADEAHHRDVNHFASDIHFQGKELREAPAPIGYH
The following applies: activator; 2.5 mM NADH, 5 mM DTT, 1 mM KCN, pH 7.0; discussion text b26 prints 90 μM; read-out: Present study / K1/2 PYR. The text has this:
O2 consumption (Clark electrode), activation of AOX in inverted membrane vesicles on GmAOX2A

The target of another assay is T3, GmAOX2D (Glycine max, UniProt O03376).
T3 construct: gene AOX3; mature form, predicted mitochondrial target peptide removed, new start Met (forward primer encodes M-STLPEVK), pET22b(+), E. coli BHH8 inverted membrane vesicles; apparent 31 kDa; reduced (DTT)
T3 sequence (O03376 51-326): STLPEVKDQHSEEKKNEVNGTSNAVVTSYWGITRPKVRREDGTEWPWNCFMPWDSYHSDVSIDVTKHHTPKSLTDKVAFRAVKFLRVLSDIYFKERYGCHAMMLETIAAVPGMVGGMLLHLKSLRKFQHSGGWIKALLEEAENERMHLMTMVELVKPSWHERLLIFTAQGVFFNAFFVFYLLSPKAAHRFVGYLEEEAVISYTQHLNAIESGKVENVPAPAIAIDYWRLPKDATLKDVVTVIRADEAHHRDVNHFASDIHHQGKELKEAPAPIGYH
The settings on record: activator; 2.5 mM NADH, 5 mM DTT, 1 mM KCN, pH 7.0; read-out: Present study / K1/2 PYR. The text has this:
O2 consumption (Clark electrode), activation of AOX in inverted membrane vesicles on GmAOX2D

Take `CC(=O)C(=O)O` [pyruvate]: the figures for the EC50 on GmAOX1, on GmAOX2A and on GmAOX2D were 4 µM, 99 µM and 40 µM, respectively.
